Assay results published in ChEMBL document CHEMBL4507274 (2021).

Assays:
[1] = molecular target: Calcium/calmodulin-dependent protein kinase type 1D (Homo sapiens) (UniProt Q8IU85); conditions: Compound concentration 100.0 nM
[2] = molecular target: Tyrosine-protein kinase JAK1 (Homo sapiens) (UniProt P23458); conditions: Compound concentration 100.0 nM
[3] = molecular target: Myosin light chain kinase (Homo sapiens) (UniProt Q32MK0); conditions: Compound concentration 100.0 nM
[4] = molecular target: Serine/threonine-protein kinase Sgk2 (Homo sapiens) (UniProt Q9HBY8); conditions: Compound concentration 100.0 nM
[5] = molecular target: G protein-coupled receptor kinase 3 (Homo sapiens) (UniProt P35626); conditions: Compound concentration 100.0 nM
[6] = molecular target: RAC-gamma serine/threonine-protein kinase (Homo sapiens) (UniProt Q9Y243); conditions: Compound concentration 100.0 nM
[7] = molecular target: Cyclin-dependent kinase 11B (Homo sapiens) (UniProt P21127); conditions: Compound concentration 100.0 nM
[8] = molecular target: Serine/threonine-protein kinase 32A (Homo sapiens) (UniProt Q8WU08); conditions: Compound concentration 100.0 nM
Chain of Serine/threonine-protein kinase 32A (Homo sapiens) (Q8WU08 whole entry): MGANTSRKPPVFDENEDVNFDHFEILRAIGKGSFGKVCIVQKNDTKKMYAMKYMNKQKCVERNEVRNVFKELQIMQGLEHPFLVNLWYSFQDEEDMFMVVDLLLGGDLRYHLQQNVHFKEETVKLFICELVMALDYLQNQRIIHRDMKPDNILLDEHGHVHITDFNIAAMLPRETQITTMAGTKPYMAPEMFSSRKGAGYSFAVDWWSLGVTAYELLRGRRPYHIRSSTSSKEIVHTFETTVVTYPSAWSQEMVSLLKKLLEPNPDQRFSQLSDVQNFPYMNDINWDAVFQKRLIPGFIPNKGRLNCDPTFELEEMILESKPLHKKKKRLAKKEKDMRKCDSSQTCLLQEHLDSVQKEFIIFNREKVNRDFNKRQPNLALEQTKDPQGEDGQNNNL

[9] = molecular target: Macrophage-stimulating protein receptor (Homo sapiens) (UniProt Q04912); conditions: Compound concentration 100.0 nM
[10] = molecular target: Tyrosine-protein kinase Srms (Homo sapiens) (UniProt Q9H3Y6); conditions: Compound concentration 100.0 nM
Chain of Tyrosine-protein kinase Srms (Homo sapiens) (Q9H3Y6 whole entry): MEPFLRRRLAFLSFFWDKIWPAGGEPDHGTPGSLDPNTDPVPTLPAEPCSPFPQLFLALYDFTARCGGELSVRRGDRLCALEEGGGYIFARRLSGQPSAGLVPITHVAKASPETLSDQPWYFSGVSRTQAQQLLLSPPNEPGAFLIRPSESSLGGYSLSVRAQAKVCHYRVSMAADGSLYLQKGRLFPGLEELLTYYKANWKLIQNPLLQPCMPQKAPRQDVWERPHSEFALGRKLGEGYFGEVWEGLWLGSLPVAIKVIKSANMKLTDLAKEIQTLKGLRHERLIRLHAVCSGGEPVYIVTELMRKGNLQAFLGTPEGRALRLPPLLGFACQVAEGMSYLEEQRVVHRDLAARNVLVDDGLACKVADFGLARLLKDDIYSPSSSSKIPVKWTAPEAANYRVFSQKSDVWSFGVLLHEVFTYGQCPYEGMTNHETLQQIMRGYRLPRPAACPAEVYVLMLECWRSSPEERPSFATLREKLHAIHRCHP

[11] = molecular target: Tyrosine-protein kinase TXK (Homo sapiens) (UniProt P42681); conditions: Compound concentration 100.0 nM
Chain of Tyrosine-protein kinase TXK (Homo sapiens) (P42681 whole entry): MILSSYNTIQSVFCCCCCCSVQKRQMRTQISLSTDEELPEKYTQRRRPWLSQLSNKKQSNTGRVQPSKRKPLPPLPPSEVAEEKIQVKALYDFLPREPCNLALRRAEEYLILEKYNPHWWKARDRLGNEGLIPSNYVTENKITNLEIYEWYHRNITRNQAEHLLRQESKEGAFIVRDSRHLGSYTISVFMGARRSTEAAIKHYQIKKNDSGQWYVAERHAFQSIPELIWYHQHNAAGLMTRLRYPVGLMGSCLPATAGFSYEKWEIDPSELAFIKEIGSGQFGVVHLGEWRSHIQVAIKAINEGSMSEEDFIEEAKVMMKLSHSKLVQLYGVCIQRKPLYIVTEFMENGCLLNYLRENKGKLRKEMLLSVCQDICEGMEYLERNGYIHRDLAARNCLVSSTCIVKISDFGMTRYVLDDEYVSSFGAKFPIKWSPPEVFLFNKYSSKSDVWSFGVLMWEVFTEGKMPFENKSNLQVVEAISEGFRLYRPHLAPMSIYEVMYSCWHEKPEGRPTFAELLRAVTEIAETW

[12] = molecular target: Ephrin type-A receptor 3 (Homo sapiens) (UniProt P29320); conditions: Compound concentration 100.0 nM
Chain of Ephrin type-A receptor 3 (Homo sapiens) (P29320 whole entry): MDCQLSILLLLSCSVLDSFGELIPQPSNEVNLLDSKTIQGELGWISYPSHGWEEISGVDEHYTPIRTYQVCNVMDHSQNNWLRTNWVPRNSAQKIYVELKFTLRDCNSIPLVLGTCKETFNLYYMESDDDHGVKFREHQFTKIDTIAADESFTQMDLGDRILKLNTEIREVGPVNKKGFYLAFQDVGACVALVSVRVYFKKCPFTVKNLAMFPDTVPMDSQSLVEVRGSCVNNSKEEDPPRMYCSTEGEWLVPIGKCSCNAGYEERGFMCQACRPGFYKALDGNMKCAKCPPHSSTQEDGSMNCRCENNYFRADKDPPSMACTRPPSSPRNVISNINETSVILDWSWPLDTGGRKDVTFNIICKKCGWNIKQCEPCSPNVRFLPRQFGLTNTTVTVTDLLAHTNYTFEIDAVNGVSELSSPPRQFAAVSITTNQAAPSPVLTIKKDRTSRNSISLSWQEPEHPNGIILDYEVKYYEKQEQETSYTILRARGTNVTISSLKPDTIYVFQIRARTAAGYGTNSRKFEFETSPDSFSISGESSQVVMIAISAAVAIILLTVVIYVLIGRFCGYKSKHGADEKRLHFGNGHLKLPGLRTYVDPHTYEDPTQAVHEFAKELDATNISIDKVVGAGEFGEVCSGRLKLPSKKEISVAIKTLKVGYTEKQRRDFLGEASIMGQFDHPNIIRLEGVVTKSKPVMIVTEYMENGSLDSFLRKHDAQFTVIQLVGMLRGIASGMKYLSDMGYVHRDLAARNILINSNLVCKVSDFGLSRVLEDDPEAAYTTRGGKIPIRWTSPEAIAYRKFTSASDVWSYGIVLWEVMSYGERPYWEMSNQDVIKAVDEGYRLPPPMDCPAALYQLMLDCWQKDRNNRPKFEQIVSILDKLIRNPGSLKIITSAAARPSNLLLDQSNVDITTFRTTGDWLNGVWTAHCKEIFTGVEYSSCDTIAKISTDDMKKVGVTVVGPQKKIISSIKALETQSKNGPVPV

[13] = molecular target: ALK tyrosine kinase receptor (Homo sapiens) (UniProt Q9UM73); conditions: Compound concentration 100.0 nM
[14] = molecular target: Serine/threonine-protein kinase 32B (Homo sapiens) (UniProt Q9NY57); conditions: Compound concentration 100.0 nM
[15] = molecular target: Histamine H3 receptor (Homo sapiens) (UniProt Q9Y5N1); conditions: Compound concentration 10.0 uM
Chain of Histamine H3 receptor (Homo sapiens) (Q9Y5N1 whole entry): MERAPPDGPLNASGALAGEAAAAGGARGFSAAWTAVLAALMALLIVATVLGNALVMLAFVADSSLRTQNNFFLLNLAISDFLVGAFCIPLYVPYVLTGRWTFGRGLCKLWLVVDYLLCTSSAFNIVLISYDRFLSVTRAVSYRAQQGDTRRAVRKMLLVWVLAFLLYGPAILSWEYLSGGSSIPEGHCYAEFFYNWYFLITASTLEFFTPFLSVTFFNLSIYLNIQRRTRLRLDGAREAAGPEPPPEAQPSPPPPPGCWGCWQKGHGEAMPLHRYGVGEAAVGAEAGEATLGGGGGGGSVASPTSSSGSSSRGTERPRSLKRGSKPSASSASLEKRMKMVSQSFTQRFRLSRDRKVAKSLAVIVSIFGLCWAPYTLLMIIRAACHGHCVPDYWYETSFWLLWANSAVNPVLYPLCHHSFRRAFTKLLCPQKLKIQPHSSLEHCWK

[16] = molecular target: cAMP-dependent protein kinase catalytic subunit alpha (Homo sapiens) (UniProt P17612); conditions: Compound concentration 100.0 nM
[17] = molecular target: Cyclin-dependent kinase 19 (Homo sapiens) (UniProt Q9BWU1); conditions: Compound concentration 100.0 nM
Chain of Cyclin-dependent kinase 19 (Homo sapiens) (Q9BWU1 whole entry): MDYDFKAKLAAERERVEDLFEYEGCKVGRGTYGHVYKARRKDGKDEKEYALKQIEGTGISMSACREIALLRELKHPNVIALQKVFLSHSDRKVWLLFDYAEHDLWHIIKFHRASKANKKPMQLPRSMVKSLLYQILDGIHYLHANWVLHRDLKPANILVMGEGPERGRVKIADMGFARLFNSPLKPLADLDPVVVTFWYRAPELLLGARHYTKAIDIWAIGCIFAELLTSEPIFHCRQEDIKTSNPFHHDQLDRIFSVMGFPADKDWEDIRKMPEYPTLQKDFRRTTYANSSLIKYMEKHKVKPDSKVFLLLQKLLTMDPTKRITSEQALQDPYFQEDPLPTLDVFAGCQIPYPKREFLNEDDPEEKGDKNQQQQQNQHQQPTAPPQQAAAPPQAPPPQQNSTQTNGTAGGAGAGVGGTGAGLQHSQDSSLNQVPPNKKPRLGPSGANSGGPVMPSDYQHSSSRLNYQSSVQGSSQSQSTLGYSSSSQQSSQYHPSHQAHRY

[18] = molecular target: Serine/threonine-protein kinase ULK3 (Homo sapiens) (UniProt Q6PHR2); conditions: Compound concentration 100.0 nM
[19] = molecular target: T1, Serine/threonine-protein kinase Chk1 (Homo sapiens) (UniProt O14757); conditions: Compound concentration 100.0 nM
T1 sequence (whole entry): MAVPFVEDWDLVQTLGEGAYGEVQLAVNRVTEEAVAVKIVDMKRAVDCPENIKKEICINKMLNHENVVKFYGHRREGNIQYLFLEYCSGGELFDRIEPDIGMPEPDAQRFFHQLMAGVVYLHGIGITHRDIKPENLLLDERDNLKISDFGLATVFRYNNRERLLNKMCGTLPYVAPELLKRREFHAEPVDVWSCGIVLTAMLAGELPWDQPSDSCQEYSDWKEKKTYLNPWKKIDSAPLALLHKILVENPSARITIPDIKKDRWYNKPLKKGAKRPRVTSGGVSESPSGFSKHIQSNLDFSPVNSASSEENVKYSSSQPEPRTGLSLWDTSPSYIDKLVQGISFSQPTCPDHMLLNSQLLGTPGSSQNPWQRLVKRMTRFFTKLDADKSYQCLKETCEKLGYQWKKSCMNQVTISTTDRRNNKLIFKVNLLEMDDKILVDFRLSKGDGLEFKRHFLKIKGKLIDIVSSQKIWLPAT

[20] = molecular target: Ephrin type-A receptor 7 (Homo sapiens) (UniProt Q15375); conditions: Compound concentration 100.0 nM
Chain of Ephrin type-A receptor 7 (Homo sapiens) (Q15375 28-998 limits assumed): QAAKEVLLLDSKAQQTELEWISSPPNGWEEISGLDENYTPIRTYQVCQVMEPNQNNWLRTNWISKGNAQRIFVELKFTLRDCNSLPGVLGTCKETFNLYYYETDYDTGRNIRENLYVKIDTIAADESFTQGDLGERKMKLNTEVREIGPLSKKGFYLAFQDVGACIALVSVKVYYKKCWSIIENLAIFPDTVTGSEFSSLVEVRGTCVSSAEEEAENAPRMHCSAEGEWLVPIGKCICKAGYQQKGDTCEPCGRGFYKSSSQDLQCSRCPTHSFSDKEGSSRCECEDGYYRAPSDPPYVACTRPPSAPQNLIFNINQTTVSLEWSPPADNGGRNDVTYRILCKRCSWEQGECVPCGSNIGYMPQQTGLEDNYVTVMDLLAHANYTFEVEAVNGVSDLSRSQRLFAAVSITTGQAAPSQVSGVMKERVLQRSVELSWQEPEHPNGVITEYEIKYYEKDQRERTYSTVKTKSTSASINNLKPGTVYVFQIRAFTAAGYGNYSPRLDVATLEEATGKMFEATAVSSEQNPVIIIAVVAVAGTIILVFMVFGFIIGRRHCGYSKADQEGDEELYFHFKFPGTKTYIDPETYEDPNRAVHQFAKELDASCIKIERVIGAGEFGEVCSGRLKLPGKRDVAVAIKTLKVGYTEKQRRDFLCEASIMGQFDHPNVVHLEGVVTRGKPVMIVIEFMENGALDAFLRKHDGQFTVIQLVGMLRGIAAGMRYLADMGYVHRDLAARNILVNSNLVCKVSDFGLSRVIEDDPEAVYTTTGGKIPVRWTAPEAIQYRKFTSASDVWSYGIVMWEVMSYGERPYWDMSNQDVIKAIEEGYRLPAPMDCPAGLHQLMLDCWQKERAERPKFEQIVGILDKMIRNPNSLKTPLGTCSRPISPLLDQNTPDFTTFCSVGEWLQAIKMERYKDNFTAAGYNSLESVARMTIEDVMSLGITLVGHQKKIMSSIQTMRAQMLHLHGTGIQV

[21] = molecular target: Dual specificity protein kinase CLK1 (Homo sapiens) (UniProt P49759); conditions: Compound concentration 100.0 nM
[22] = molecular target: Homeodomain-interacting protein kinase 3 (Homo sapiens) (UniProt Q9H422); conditions: Compound concentration 100.0 nM
[23] = molecular target: Ephrin type-B receptor 1 (Homo sapiens) (UniProt P54762); conditions: Compound concentration 100.0 nM
[24] = molecular target: T2, Serine/threonine-protein kinase D1 (Homo sapiens) (UniProt Q15139); conditions: Compound concentration 100.0 nM
T2 sequence (whole entry): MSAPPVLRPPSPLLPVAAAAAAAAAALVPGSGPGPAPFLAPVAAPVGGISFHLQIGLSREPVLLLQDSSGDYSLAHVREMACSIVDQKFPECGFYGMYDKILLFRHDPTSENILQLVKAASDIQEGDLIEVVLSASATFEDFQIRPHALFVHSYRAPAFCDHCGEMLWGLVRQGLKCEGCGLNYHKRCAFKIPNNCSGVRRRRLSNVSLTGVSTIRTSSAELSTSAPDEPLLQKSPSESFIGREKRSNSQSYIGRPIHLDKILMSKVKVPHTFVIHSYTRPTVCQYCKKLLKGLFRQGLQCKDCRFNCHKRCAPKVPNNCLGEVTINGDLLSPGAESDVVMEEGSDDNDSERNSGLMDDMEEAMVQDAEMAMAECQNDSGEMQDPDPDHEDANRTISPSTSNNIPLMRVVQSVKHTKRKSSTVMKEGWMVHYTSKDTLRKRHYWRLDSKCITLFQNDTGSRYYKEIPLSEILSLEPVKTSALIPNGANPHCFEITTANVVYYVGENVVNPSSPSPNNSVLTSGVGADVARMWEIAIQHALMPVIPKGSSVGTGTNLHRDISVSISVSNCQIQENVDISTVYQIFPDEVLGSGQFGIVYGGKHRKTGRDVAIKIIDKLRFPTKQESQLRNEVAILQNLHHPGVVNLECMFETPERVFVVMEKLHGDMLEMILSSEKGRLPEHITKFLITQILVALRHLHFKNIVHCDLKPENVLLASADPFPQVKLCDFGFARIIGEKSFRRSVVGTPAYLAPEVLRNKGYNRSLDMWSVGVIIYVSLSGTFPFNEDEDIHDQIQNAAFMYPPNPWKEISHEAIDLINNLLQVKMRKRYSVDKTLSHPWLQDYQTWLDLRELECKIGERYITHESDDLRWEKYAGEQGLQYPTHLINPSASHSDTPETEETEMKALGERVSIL

Chain of Calcium/calmodulin-dependent protein kinase type 1D (Homo sapiens) (Q8IU85 whole entry, looked up): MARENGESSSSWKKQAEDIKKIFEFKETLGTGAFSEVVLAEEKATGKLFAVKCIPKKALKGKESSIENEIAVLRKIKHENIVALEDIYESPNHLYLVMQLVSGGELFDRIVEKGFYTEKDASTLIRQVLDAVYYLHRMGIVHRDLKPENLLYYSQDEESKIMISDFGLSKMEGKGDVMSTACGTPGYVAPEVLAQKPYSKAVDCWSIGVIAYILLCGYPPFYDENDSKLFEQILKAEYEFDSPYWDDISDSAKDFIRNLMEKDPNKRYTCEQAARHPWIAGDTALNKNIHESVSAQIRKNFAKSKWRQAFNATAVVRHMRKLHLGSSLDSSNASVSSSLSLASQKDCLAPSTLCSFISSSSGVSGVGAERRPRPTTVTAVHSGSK

`Cc1c[nH]c2nccc(Oc3c(F)cc(Nc4cc(Cl)nc(N)n4)cc3F)c12` [BAY-549] was tested, and the residual activity [1] was 94%, the residual activity [2] was 84% and the residual activity [3] was 91%. The residual activity [4] was 69%, the residual activity [5] was 78% and the residual activity [6] was 78%. For the same compound, the residual activity [7] was 80%, the residual activity [8] was 86% and the residual activity [9] was 74%. The residual activity [10] was 100%, the residual activity [11] was 100% and the residual activity [12] was 97%. For the same compound, the residual activity [13] was 95%, the residual activity [14] was 71% and the inhibition [15] was 8.13%. The residual activity [16] was 28%, the residual activity [17] was 80% and the residual activity [18] was 88%. For the same compound, the residual activity [19] was 100%, the residual activity [20] was 82% and the residual activity [21] was 83%. For the same compound, the residual activity [22] was 92%, the residual activity [23] was 86% and the residual activity [24] was 55%.
In the case of `Cn1cc(Cl)c2c(Oc3c(F)cc(Nc4cc(Cl)nc(N)n4)cc3F)ccnc21` [BAY-4900], the residual activity [1] is reported as 100%, the residual activity [2] is reported as 83% and the residual activity [3] is reported as 94%. For the same compound, the residual activity [4] was 86%, the residual activity [5] was 83% and the residual activity [6] was 98%. It also gave a residual activity [7] of 100%, a residual activity [8] of 89% and a residual activity [9] of 87%. The residual activity [10] was 100%, the residual activity [11] was 100% and the residual activity [12] was 83%. For the same compound, the residual activity [13] was 89%, the residual activity [14] was 99% and the inhibition [15] was 31%. It also gave a residual activity [16] of 90%, a residual activity [17] of 88% and a residual activity [18] of 85%. It also gave a residual activity [19] of 100%, a residual activity [20] of 96% and a residual activity [21] of 96%. The residual activity [22] was 80%, the residual activity [23] was 96% and the residual activity [24] was 74%.
